Assay results taken from patent publication US11142525B2 (Pfizer Inc., priority 2018, dated 2021).
pIC50, pKi: −log10 of the molar value. Structures can show the parent of a compound that is named as a salt. Where two headings read alike, the source gives them in different places.

Legend:
[1] = test system: phospho-SLP-76 (Ser376) in Jurkat cells; test: Phospho-SLP-76 (Ser376) Homogeneous Time Resolved Fluorescence (HTRF) assay in Jurkat cells; type: cell-based; settings: Homo sapiens, read-out: SLP76 Assay_IC50
Method in brief: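 Phospho-SLP-76 in lysates was read by sandwich HTRF and IC50 derived by four-parameter nonlinear regression. Before lysis, cells had received compound for 30 min (11-point, 3-fold series from 10 μM, 0.1% DMSO), followed by anti-CD3 F(ab)2 complex (200 μg/mL, 15 min, 37 °C).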

[2] = target: human full-length recombinant HPK1 (Homo sapiens (Human), UniProt Q92918); test: HPK1 biochemical enzyme assay, microfluidic mobility shift assay (MSA); settings: read-out: HPK1 Enzyme Assay_Ki
[3] = 30 min pre-treatment, anti-CD3 stimulation 15 min, HTRF
[4] = mobility shift assay, 75 μM ATP, Morrison equation, tight-binding competitive inhibition
[5] = Phospho-SLP-76 (Ser376) HTRF, anti-CD3 stimulation

Chain of human full-length recombinant HPK1 (Q92918 whole entry): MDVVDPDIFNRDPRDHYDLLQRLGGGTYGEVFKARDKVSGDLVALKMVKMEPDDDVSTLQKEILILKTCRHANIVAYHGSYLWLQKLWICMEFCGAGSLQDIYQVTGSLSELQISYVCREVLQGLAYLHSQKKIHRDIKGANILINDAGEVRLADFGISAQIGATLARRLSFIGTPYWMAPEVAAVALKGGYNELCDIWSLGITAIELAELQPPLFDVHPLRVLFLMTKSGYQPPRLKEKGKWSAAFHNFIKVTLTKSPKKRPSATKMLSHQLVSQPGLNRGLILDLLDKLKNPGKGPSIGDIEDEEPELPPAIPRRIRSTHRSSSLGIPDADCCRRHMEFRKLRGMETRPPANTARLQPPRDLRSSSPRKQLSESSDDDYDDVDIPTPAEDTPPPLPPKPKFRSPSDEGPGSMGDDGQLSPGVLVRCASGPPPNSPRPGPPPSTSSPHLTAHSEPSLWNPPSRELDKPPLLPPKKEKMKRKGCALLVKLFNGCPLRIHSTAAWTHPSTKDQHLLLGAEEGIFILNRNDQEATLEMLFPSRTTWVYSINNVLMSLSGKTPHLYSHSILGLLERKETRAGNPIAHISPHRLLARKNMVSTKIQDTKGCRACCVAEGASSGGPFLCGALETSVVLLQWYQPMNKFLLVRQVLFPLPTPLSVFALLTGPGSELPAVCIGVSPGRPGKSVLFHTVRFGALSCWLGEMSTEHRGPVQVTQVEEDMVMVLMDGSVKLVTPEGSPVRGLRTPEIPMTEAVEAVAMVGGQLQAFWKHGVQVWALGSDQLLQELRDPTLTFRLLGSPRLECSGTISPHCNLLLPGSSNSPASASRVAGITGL

SMILES | pIC50 [1, 3] | pKi [2, 4] | pIC50 [1, 5] | pKi ([2]; HPK1 mobility shift assay)
CNCc1nc(C2(C)CC2)cc2c1CN(c1cccc(N3C(=O)OC[C@@H]3C)n1)C2=O [Example 49, 4-[(methylamino)methyl]-6-(1-methylcyclopropyl)-2-{6-[(4S)-4-methyl-2-oxo-1,3-oxazolidin-3-yl]pyridin-2-yl}-2,3-dihydro-1H-pyrrolo[3,4-c]pyridin-1-one] | 6.14 | 8.84 | – | –
CNCc1nc(N)cc2c1CN(c1cccc(-c3nncn3C(C)C)n1)C2=O [Example 50, 6-amino-4-[(methylamino)methyl]-2-{6-[4-(propan-2-yl)-4H-1,2,4-triazol-3-yl]pyridin-2-yl}-2,3-dihydro-1H-pyrrolo[3,4-c]pyridin-1-one] | 7.03 | 9.85 | – | –
CNCc1nc(N2[C@H](C)C[C@@H]2C)cc2c1CN(c1cccc(-c3nncn3C(C)C)n1)C2=O [Example 53, 6-[(2R,4S)-2,4-dimethylazetidin-1-yl]-4-[(methylamino)methyl]-2-{6-[4-(propan-2-yl)-4H-1,2,4-triazol-3-yl]pyridin-2-yl}-2,3-dihydro-1H-pyrrolo[3,4-c]pyridin-1-one] | 6.31 | 9.21 | – | –
CCCn1cnnc1-c1cccc(N2Cc3c(cc(N(C)CC)nc3CN)C2=O)n1 [Example 56, 4-(aminomethyl)-6-[ethyl(methyl)amino]-2-[6-(4-propyl-4H-1,2,4-triazol-3-yl)pyridin-2-yl]-2,3-dihydro-1H-pyrrolo[3,4-c]pyridin-1-one hydrochloride] | 6.86 | 9.47 | – | –
CCC(CC)n1cnnc1-c1cccc(N2Cc3c(cc(C4(C)CC4)nc3CNC)C2=O)n1 [Example 57, 4-[(methylamino)methyl]-6-(1-methylcyclopropyl)-2-{6-[4-(pentan-3-yl)-4H-1,2,4-triazol-3-yl]pyridin-2-yl}-2,3-dihydro-1H-pyrrolo[3,4-c]pyridin-1-one] | 7.13 | 9.68 | – | –
CC[C@H](C)n1cnnc1-c1cccc(N2Cc3c(cc(C4(C)CC4)nc3CNC)C2=O)n1 [Example 58, 2-(6-{4-[(2S)-butan-2-yl]-4H-1,2,4-triazol-3-yl}pyridin-2-yl)-4-[(methylamino)methyl]-6-(1-methylcyclopropyl)-2,3-dihydro-1H-pyrrolo[3,4-c]pyridin-1-one] | 6.99 | 9.80 | – | –
CCCn1cnnc1-c1cccc(N2Cc3c(cc(N(C)CC)nc3CNC)C2=O)n1 [Example 59, 6-[ethyl(methyl)amino]-4-[(methylamino)methyl]-2-[6-(4-propyl-4H-1,2,4-triazol-3-yl)pyridin-2-yl]-2,3-dihydro-1H-pyrrolo[3,4-c]pyridin-1-one] | 7.23 | 9.72 | – | –
CCN(C)c1cc2c(c(CN)n1)CN(c1cccc(-c3nncn3CC)n1)C2=O [Example 60, 4-(aminomethyl)-6-[ethyl(methyl)amino]-2-[6-(4-ethyl-4H-1,2,4-triazol-3-yl)pyridin-2-yl]-2,3-dihydro-1H-pyrrolo[3,4-c]pyridin-1-one] | 7.15 | 9.77 | – | –
CCn1c(C)nnc1-c1cccc(N2Cc3c(cc(N4CCC[C@H]4C)nc3CN)C2=O)n1 [Example 61, 4-(aminomethyl)-2-[6-(4-ethyl-5-methyl-4H-1,2,4-triazol-3-yl)pyridin-2-yl]-6-[(2R)-2-methylpyrrolidin-1-yl]-2,3-dihydro-1H-pyrrolo[3,4-c]pyridin-1-one] | 7.06 | 9.74 | – | –
CNCc1nc(C2(C)CC2)cc2c1CN(c1cccc(-c3nncn3C3CCC3)n1)C2=O [Example 65, 2-[6-(4-cyclobutyl-4H-1,2,4-triazol-3-yl)pyridin-2-yl]-4-[(methylamino)methyl]-6-(1-methylcyclopropyl)-2,3-dihydro-1H-pyrrolo[3,4-c]pyridin-1-one] | 6.94 | 9.46 | – | –
CCc1nnc(-c2cccc(N3Cc4c(cc(N5CCC[C@H]5C)nc4CNC)C3=O)n2)n1CC [Example 66, 2-[6-(4,5-diethyl-4H-1,2,4-triazol-3-yl)pyridin-2-yl]-4-[(methylamino)methyl]-6-[(2R)-2-methylpyrrolidin-1-yl]-2,3-dihydro-1H-pyrrolo[3,4-c]pyridin-1-one] | 6.97 | 9.28 | – | –
C[C@@H]1CCCN1c1cc2c(c(CN)n1)CN(c1cccc(N3C(=O)OC[C@@H]3CF)n1)C2=O [Example 68, 4-(aminomethyl)-2-{6-[(4R)-4-(fluoromethyl)-2-oxo-1,3-oxazolidin-3-yl]pyridin-2-yl}-6-[(2R)-2-methylpyrrolidin-1-yl]-2,3-dihydro-1H-pyrrolo[3,4-c]pyridin-1-one] | 7.30 | > 10.15 | – | –
CNCc1nc(C2CCC2)cc2c1CN(c1cccc(-c3nncn3C(C)C)n1)C2=O [Example 69, 6-cyclobutyl-4-[(methylamino)methyl]-2-{6-[4-(propan-2-yl)-4H-1,2,4-triazol-3-yl]pyridin-2-yl}-2,3-dihydro-1H-pyrrolo[3,4-c]pyridin-1-one] | – | – | 6.61 | 9.28
CCN(c1cc2c(c(CNC)n1)CN(c1cccc(-c3nncn3C(C)C)n1)C2=O)C(C)C [Example 70, 6-[ethyl(propan-2-yl)amino]-4-[(methylamino)methyl]-2-{6-[4-(propan-2-yl)-4H-1,2,4-triazol-3-yl]pyridin-2-yl}-2,3-dihydro-1H-pyrrolo[3,4-c]pyridin-1-one] | – | – | 7.21 | 9.80
CCn1cnnc1-c1cccc(N2Cc3c(cc(N(C)C(C)C)nc3CNC)C2=O)n1 [Example 71, 2-[6-(4-ethyl-4H-1,2,4-triazol-3-yl)pyridin-2-yl]-4-[(methylamino)methyl]-6-[methyl(propan-2-yl)amino]-2,3-dihydro-1H-pyrrolo[3,4-c]pyridin-1-one] | – | – | 7.40 | 9.74
CNCc1nc(N(C)C(C)C)cc2c1CN(c1cccc(N3C(=O)OC[C@@H]3C)n1)C2=O [Example 74, 4-[(methylamino)methyl]-2-{6-[(4S)-4-methyl-2-oxo-1,3-oxazolidin-3-yl]pyridin-2-yl}-6-[methyl(propan-2-yl)amino]-2,3-dihydro-1H-pyrrolo[3,4-c]pyridin-1-one] | – | – | 7.11 | 10.22
CCN(CC)c1cc2c(c(CN)n1)CN(c1cccc(-c3nncn3CC)n1)C2=O [Example 75, 4-(aminomethyl)-6-(diethylamino)-2-[6-(4-ethyl-4H-1,2,4-triazol-3-yl)pyridin-2-yl]-2,3-dihydro-1H-pyrrolo[3,4-c]pyridin-1-one] | – | – | 6.93 | 9.28
CCNc1cc2c(c(CNC)n1)CN(c1cccc(-c3nncn3CC)n1)C2=O [Example 76, 6-(ethylamino)-2-[6-(4-ethyl-4H-1,2,4-triazol-3-yl)pyridin-2-yl]-4-[(methylamino)methyl]-2,3-dihydro-1H-pyrrolo[3,4-c]pyridin-1-one] | – | – | 6.23 | 9.19
CNCc1nc(NC(C)C)cc2c1CN(c1cccc(-c3nncn3C(C)C)n1)C2=O [Example 78, 4-[(methylamino)methyl]-6-(propan-2-ylamino)-2-{6-[4-(propan-2-yl)-4H-1,2,4-triazol-3-yl]pyridin-2-yl}-2,3-dihydro-1H-pyrrolo[3,4-c]pyridin-1-one] | – | – | 6.51 | 9.14
CC(C)N(C)c1cc2c(c(CN)n1)CN(c1cccc(-c3nncn3C(C)C)n1)C2=O [Example 79, 4-(aminomethyl)-6-[methyl(propan-2-yl)amino]-2-{6-[4-(propan-2-yl)-4H-1,2,4-triazol-3-yl]pyridin-2-yl}-2,3-dihydro-1H-pyrrolo[3,4-c]pyridin-1-one] | – | – | 7.32 | > 10.30
CCCn1cnnc1-c1cccc(N2Cc3c(cc(N(CC)CC)nc3CNC)C2=O)n1 [Example 80, 6-(diethylamino)-4-[(methylamino)methyl]-2-[6-(4-propyl-4H-1,2,4-triazol-3-yl)pyridin-2-yl]-2,3-dihydro-1H-pyrrolo[3,4-c]pyridin-1-one] | – | – | 6.74 | 9.80
CNCc1nc(N(C)C(C)C)cc2c1CN(c1cccc(-c3nncn3C)n1)C2=O [Example 81, 4-[(methylamino)methyl]-6-[methyl(propan-2-yl)amino]-2-[6-(4-methyl-4H-1,2,4-triazol-3-yl)pyridin-2-yl]-2,3-dihydro-1H-pyrrolo[3,4-c]pyridin-1-one] | – | – | 6.39 | 9.24
CCCn1cnnc1-c1cccc(N2Cc3c(cc(N(C)C(C)C)nc3CN)C2=O)n1 [Example 82, 4-(aminomethyl)-6-[methyl(propan-2-yl)amino]-2-[6-(4-propyl-4H-1,2,4-triazol-3-yl)pyridin-2-yl]-2,3-dihydro-1H-pyrrolo[3,4-c]pyridin-1-one] | – | – | 7.02 | 9.92
CNCc1nc(C2(C)CC2)cc2c1CN(c1ccc(F)c(-c3nncn3C(C)C)n1)C2=O [Example 83, 2-{5-fluoro-6-[4-(propan-2-yl)-4H-1,2,4-triazol-3-yl]pyridin-2-yl}-4-[(methylamino)methyl]-6-(1-methylcyclopropyl)-2,3-dihydro-1H-pyrrolo[3,4-c]pyridin-1-one] | – | – | 5.18 | 7.45
CCN(c1cc2c(c(CNC)n1)CN(c1cccc(-c3nncn3CC)n1)C2=O)C(C)C [Example 84, 6-[ethyl(propan-2-yl)amino]-2-[6-(4-ethyl-4H-1,2,4-triazol-3-yl)pyridin-2-yl]-4-[(methylamino)methyl]-2,3-dihydro-1H-pyrrolo[3,4-c]pyridin-1-one] | – | – | 6.86 | 9.85
CC1(c2cc3c(c(CN)n2)CN(c2cccc(N4C(=O)OC[C@@H]4CF)n2)C3=O)CC1 [Example 85, 4-(aminomethyl)-2-{6-[(4R)-4-(fluoromethyl)-2-oxo-1,3-oxazolidin-3-yl]pyridin-2-yl}-6-(1-methylcyclopropyl)-2,3-dihydro-1H-pyrrolo[3,4-c]pyridin-1-one] | – | – | 6.46 | 8.95
